Experimental findings from patent publication US20150105252A1, “SUBSTITUTED PYRAZOLES AS HERBICIDES” (E I DU PONT DE NEMOURS AND COMPANY, priority 2013, published 2015) are described below.

Structures are written as SMILES.

The subject of one test is Russian thistle. Briefly: Test C preemergence. It counts as in vivo, Salsola kali. The source says: Seeds of plant species selected from blackgrass (Alopecurus myosuroides), ryegrass, Italian (Italian ryegrass, Lolium multiflorum), wheat (winter wheat, Triticum aestivum), galium (catchweed bedstraw, Galium aparine), corn (Zea mays), crabgrass, large (large crabgrass, Digitaria sanguinalis), foxtail, giant (giant foxtail, Setaria faberii), johnsongrass (Sorghum halepense), lambsquarters (Chenopodium album), morningglory (Ipomoea coccinea), nutsedge, yellow (yellow nutsedge, Cyperus esculentus), pigweed (redroot pigweed, Amaranthus retroflexus), ragweed (common ragweed, Ambrosia elation), soybean (Glycine max), barnyardgrass (Echinochloa crus-galli), oilseed rape (Brassica napus), waterhemp (common waterhemp, Amaranthus rudis), oat, wild (wild oat, Avena fatua), kochia (Kochia scoparia), Surinam grass (Brachiaria decumbens), foxtail, green (green foxtail, Setaria viridis), goosegrass (Eleusine indica), bromegrass, downy (downy bromegrass, Bromus tectorum), nightshade (eastern black nightshade, Solanum ptycanthum), cocklebur (common cocklebur, Xanthium strumarium), cupgrass, woolly (woolly cupgrass, Eriochloa villosa), bermudagrass (Cynodon dactylon), sunflower, (common oilseed sunflower, Helianthus annuus), Russian thistle (Salsola kali), and velvetleaf (Abutilon theophrasti) were planted into a blend of loam soil and sand and treated preemergence with test chemicals formulated in a non-phytotoxic solvent mixture which included a surfactant.
At the same time, plants selected from these crop and weed species and also chickweed (common chickweed, Stellaria media), canarygrass (littleseed canarygrass, Phalaris minor), and deadnettle (henbit deadnettle, Lamium amplexicaule), were planted in pots containing Redi-Earth® planting medium (Scotts Company, 14111 Scottslawn Road, Marysville, Ohio 43041) comprising spaghnum peat moss, vermiculite, wetting agent and starter nutrients and treated with postemergence applications of test chemicals formulated in the same manner. Plants ranged in height from 2 to 18 cm (1- to 4-leaf stage) for postemergence treatments. Treated plants and controls were maintained in a greenhouse for 13 to 15 days, after which time all species were compared to controls and visually evaluated. Plant response ratings, summarized in Table C, are based on a scale of 0 to 100 where 0 is no effect and 100 is complete control. A dash (-) response means no test result.

The test system of the next test is Italian ryegrass. Briefly: Test F postemergence. It counts as in vivo, Lolium multiflorum. The settings on record: Postemergence, scale 0 to 100. The source says:
(§1) Seeds of plant species selected from corn (Zea mays), soybean (Glycine max), velvetleaf (Abutilon theophrasti), lambsquarters (Chenopodium album), wild poinsettia (Euphorbia heterophylla), pigweed, palmer (palmer pigweed, Amaranthus palmeri), common waterhemp (Amaranthus rudis), surinam grass (Brachiaria decumbens), large crabgrass (Digitaria sanguinalis), crabgrass, Brazil (Brazilian crabgrass, Digitaria horizontalis), fall panicum (Panicum dichotomiflorum), giant foxtail (Setaria faberii), green foxtail (Setaria viridis), goosegrass (Eleusine indica), johnsongrass (Sorghum halepense), common ragweed (Ambrosia elation), barnyardgrass (Echinochloa crus-galli), southern sandbur (Cenchrus echinatus), arrowleaf sida (Sida rhombifolia), Italian ryegrass (Lolium multiflorum), dayflower, VA (Virginia (VA) dayflower, Commelina virginica), field bindweed (Convolvulus arvensis), cocklebur (common cocklebur, Xanthium strumarium), morningglory (Ipomoea coccinea), nightshade (eastern black nightshade, Solanum ptycanthum), kochia (Kochia scoparia), yellow nutsedge (Cyperus esculentus), and hairy beggarticks (Bidens pilosa), were planted into a silt loam soil and treated preemergence with test chemicals formulated in a non-phytotoxic solvent mixture which included a surfactant.
(§2) At the same time, plants from these crop and weed species and also horseweed (Canada horseweed, Conyza canadensis), smartweed (ladysthumb smartweed, Polygonum persicaria), waterhemp_RES1, (ALS & Triazine resistant common waterhemp, Amaranthus rudis), and waterhemp_RES2, (ALS & HPPD resistant common waterhemp, Amaranthus rudis) were treated with postemergence applications of test chemicals formulated in the same manner. Plants ranged in height from 2 to 18 cm for postemergence treatments (1- to 4-leaf stage). Treated plants and controls were maintained in a greenhouse for 14 to 21 days, after which time all species were compared to controls and visually evaluated. Plant response ratings, summarized in Table F, are based on a scale of 0 to 100 where 0 is no effect and 100 is complete control. A dash (-) response means no test result.

Another test concerns dayflower, VA. Briefly: Test F postemergence. It counts as in vivo, Commelina virginica. The settings on record: Postemergence, scale 0 to 100.
Source text: as §1, §2

The next test has as its system soybean. Briefly: Test F postemergence. It counts as in vivo, Glycine max. The following applies: Postemergence, scale 0 to 100.
Source text: as §1, §2

Another test relates to fall panicum. Briefly: Test F postemergence. It counts as in vivo, Panicum dichotomiflorum. The settings on record: Postemergence, scale 0 to 100.
Source text: as §1, §2

Another test relates to common waterhemp. Briefly: Test F postemergence. It counts as in vivo, Amaranthus rudis. The following applies: Postemergence, scale 0 to 100.
Source text: as §1, §2

Test [1] deals with waterhemp_RES2 (ALS & HPPD resistant common waterhemp). Briefly: Test F postemergence. It counts as in vivo, Amaranthus rudis. The settings on record: Postemergence, scale 0 to 100.
Source text: as §1, §2

Another test concerns pigweed, palmer. Briefly: Test F postemergence. It counts as in vivo, Amaranthus palmeri. The following applies: Postemergence, scale 0 to 100.
Source text: as §1, §2

The test system of a further test is hairy beggarticks. Briefly: Test F postemergence. It counts as in vivo, Bidens pilosa. The settings on record: Postemergence, scale 0 to 100.
Source text: as §1, §2

The subject of another test is wild poinsettia. Briefly: Test F postemergence. The settings on record: Postemergence, scale 0 to 100. It counts as in vivo, Euphorbia heterophylla.
Source text: as §1, §2

In the next test the test system is corn. Briefly: Test F postemergence. The settings on record: Postemergence, scale 0 to 100. It counts as in vivo, Zea mays.
Source text: as §1, §2

On to `CCONC(=O)c1cc(CC)n(Cc2cccc(OC(F)(F)F)c2)n1` [Compound 72], for which the “Plant response rating (scale of 0 to 100), Russian Thistle” value in the test on Russian thistle (Preemergence, 250 g ai/ha) is 95. The “Russian Thistle plant response rating” value in the test on Russian thistle (preemergence, 31 g ai/ha, scale 0 to 100 (0 no effect, 100 complete control), 13 to 15 days) is 5; in the test on Russian thistle (preemergence, 125 g ai/ha, scale 0 to 100, 0 is no effect, 100 is complete control), 95. Besides, the “Plant response rating, Russian Thistle” value with Russian thistle (preemergence, 62 g ai/ha, 13 to 15 days, scale 0 to 100, 0 = no effect, 100 = complete control) is listed as 90.

Take `CCCNC(=O)c1cc(CC)n(Cc2nc(C(F)(F)F)nn2C)n1` [Compound 109]: the “Plant response rating, Italian Ryegrass” value with Italian ryegrass (16 g ai/ha) is 0; with Italian ryegrass (31 g ai/ha), 0; with Italian ryegrass (125 g ai/ha) it was 15; with Italian ryegrass (250 g ai/ha), 30. Moreover, the “Plant response rating, Dayflower, VA” value is recorded as 15 in the test with dayflower, VA (16 g ai/ha); 20 in the test on dayflower, VA (31 g ai/ha); 40 with dayflower, VA (125 g ai/ha); 70 in the test on dayflower, VA (250 g ai/ha). The “Plant response rating, Soybean” value with soybean (16 g ai/ha) amounted to 50; in the test with soybean (31 g ai/ha) it was 70; in the test on soybean (125 g ai/ha), 95; in the test with soybean (250 g ai/ha), 95. For the same compound, the “Plant response rating, Fall Panicum” value is listed as 10 in the test with fall panicum (16 g ai/ha), 10 with fall panicum (31 g ai/ha), 20 with fall panicum (125 g ai/ha) and 30 in the test with fall panicum (250 g ai/ha). The “Plant response rating, Common Waterhemp” value is given as 50 in the test on common waterhemp (16 g ai/ha), 50 in the test with common waterhemp (31 g ai/ha), 75 with common waterhemp (125 g ai/ha) and 80 in the test with common waterhemp (250 g ai/ha). In addition, the “Plant response rating, Waterhemp_RES2” value turned out to be 30 in test [1] (16 g ai/ha), 50 in [1] (31 g ai/ha), 60 in [1] (125 g ai/ha) and 70 in test [1] (250 g ai/ha). The “Plant response rating, Pigweed, Palmer” value in the test on pigweed, palmer (16 g ai/ha) is given as 30; in the test on pigweed, palmer (31 g ai/ha), 50; with pigweed, palmer (125 g ai/ha) it was 60; with pigweed, palmer (250 g ai/ha), 70. Also, the “Plant response rating, Hairy Beggarticks” value with hairy beggarticks (16 g ai/ha) came out at 35; with hairy beggarticks (31 g ai/ha), 45; in the test on hairy beggarticks (125 g ai/ha), 50; in the test with hairy beggarticks (250 g ai/ha) it was 60. For the same compound, the “Plant response rating, Wild Poinsettia” value in the test on wild poinsettia (16 g ai/ha) came to 40; with wild poinsettia (31 g ai/ha), 50; with wild poinsettia (125 g ai/ha), 70. Further, the “Plant response rating, Corn” value in the test on corn (16 g ai/ha) is recorded as 0; in the test on corn (31 g ai/ha), 0; in the test with corn (125 g ai/ha), 20; with corn (250 g ai/ha), 75.
